Entries after “also recorded” stand apart in the source; their conditions may differ. Like-named read-outs stand apart in the source and are kept apart here. Square brackets hold non-standard residues; d marks the D form. Peptide text beside a SMILES is read from it. * marks the point of attachment. ξ: configuration not given here. Chlorambucil = O=C(CCCc1ccc(N(CCCl)CCCl)cc1)*; ξCha = NC(CC1CCCCC1)C(=O)O
How the values were obtained:
[1] = Pharmacokinetic study, plasma levels by HPLC-MS/MS; format: in vivo; details: mouse, ip, CD1 mice, single dose 10 mg/kg intraperitoneal; for AUC: unit inferred
Protocol: Animal handling and dose administration was performed by Kard Scientific (Beverly, MA). Six CD1 mice were treated with a single dose of 10 mg/kg mt-Cbl or Cbl via intraperitoneal injection. Blood samples were collected at 15 min, 30 min, 1 h, 2 h, 4 h and 8 h in heparin-treated tubes. Samples were kept on ice until centrifugation at 1,500 rpm for 20 min, 4°C and the resulting plasma supernatants were transferred to fresh tubes. Plasma proteins were precipitated with four volumes of ice-cold acetonitrile and spun at 10,000×g for 10 min, 4°C. The resulting supernatant was analyzed via HPLC-MS/MS to determine plasma concentrations of Cbl and mt-Cbl.

[2] = Rate of hydrolysis in saline or plasma (HPLC-MS/MS); format: in vitro ADME, mouse; details: 37°C
Protocol: Stability of mt-Cbl and MPP in mouse plasma: Thiazole orange-labelled conjugates were incubated in mouse plasma for three weeks at room temperature. The stability of these compounds was then assessed via reverse-phase HPLC. A single peak with the identical retention time to a fresh conjugate control was considered to be a positive result for stability in mouse plasma. Rate of mt-Cbl and Cbl hydrolysis in saline or plasma: Cbl and mt-Cbl were incubated in saline or plasma for 0 h, 0.5 h, 1 h, 1.5 h, 2 h, 2.5 h and 3 h at 37°C. Following this, plasma proteins were precipitated in four volumes of ice-cold acetonitrile and centrifuged at 10,000×g for 10 min, 4°C. The resulting supernatant was analyzed via HPLC-MS/MS to determine active drug concentrations in each sample.

mouse livers = assay: Liver toxicity: H&E histology and plasma liver enzymes; format: in vivo; details: mt-Cbl 15 mg/kg, Cbl 3.7 mg/kg every other day for 21 days
Protocol: Mice were treated every other day with equimolar doses of either mt-Cbl (15 mg/kg), Cbl (3.7 mg/kg) or vehicle control for 21 days by Kard Scientific (Beverly, MA). Following sacrifice, mouse livers and K562 xenograft tumors were fixed in 10% formalin overnight and then transferred to 70% ethanol. Samples were then paraffin-embedded, sectioned and stained in a standard manner by the Pathology Research Program Laboratory at Toronto General Hospital. Biotin-conjugated secondary antibodies, avidin horseradish peroxidase and the chromogenic diaminobenzidine tetrahydrochloride (DAB) were used for detection. Slides were imaged at 20× and then analyzed using Aperio ImageScope Software (Aperio Technologies, Vista, California). Positive pixels were identified and counted using the Positive Pixel Count V9 algorithm in this software. Quantification was performed on ten representative squares of 2500×2500 μm each and an average was calculated. % Positive Pixels was determined by dividing the positive pixel count by the total number of pixels analyzed. A standard hematoxylin and eosin (H&E) staining was performed on liver sections and these were reviewed for hepatotoxicity and injury by a pathologist with liver expertise. In addition, liver toxicity was evaluated though determination of levels of specific liver enzymes. Mice were treated every other day with equimolar doses of either mt-Cbl (15 mg/kg), Cbl (3.7 mg/kg) or vehicle control for 21 days. Three days after the final dose, mouse plasma samples were tested for levels of bilirubin, alkaline phosphatase and aspartate transaminase in a standard manner.

[3] = tested on: caspase 3/7 activity in HeLa cells; assay: Caspase-Glo 3/7 activity assay; format: cell-based; details: 6 hours
Protocol: (§1) HeLa cells were seeded at 7500 cells/well a day prior to experiments in white flat clear-bottom 96-well plates (Greiner Bio one). Cells were incubated with Cbl, Cbl conjugates, staurosporin or digitonin as appropriate at indicated concentrations. Cellular ATP levels and protease activity were measured after a 90 minute incubation using the Mitochondrial ToxGlo assay (Promega) as per manufacturer's instructions. To assess caspase 3/7 activity, cells were incubated with compound for 6 hours prior to measurement with the Caspase-Glo® 3/7 Assay (Promega) as per manufacturer's instructions.

[4] = Biodistribution in K562 xenograft mice; format: in vivo, mouse; details: K562 xenograft NOD/SCID mice; mt-Cbl 15 mg/kg, Cbl 100 mg/kg i.p. daily for 10 days
Protocol: K562 cells (3×10^6) were injected subcutaneously into the flanks of ten NOD/SCID mice (Ontario Cancer Institute, Toronto, ON). Palpable tumours were formed 7 days after injection and mice were then treated daily for 10 days with Cbl (100 mg/kg) or mt-Cbl (15 mg/kg) by intraperitoneal injection. Mice were sacrificed 17 days after injection of cells and organs were excised for analysis of Cbl and mt-Cbl biodistribution profiles. The liver, kidneys, spleen, heart, lungs and brain were removed from mice following sacrifice and immediately frozen in dry ice until analysis. Tissues were homogenized in four volumes of ice-cold acetonitrile and centrifuged at 10,000×g for 10 min, 4°C. The resulting supernatant was analyzed via HPLC-MS/MS to determine drug concentrations in each tissue.

[5] = tested on: caspase-3 and PARP-1 cleavage in HeLa cells; format: cell-based
leukemia = tested on: leukemia; design: method as in PMID 8241831; details: cited from earlier work
Maximal tolerated dose = details: mouse, in vivo, ip; NOD/SCID mice, intraperitoneal
Protocol: Non-obese diabetic/severe combined immunodeficiency (NOD/SCID) mice were treated intraperitoneally with increasing concentrations of Cbl (10–500 mg/kg) or mt-Cbl (10–50 mg/kg). Animals were monitored daily for weight loss, lethargy and other signs of physical discomfort. […] All animal studies were carried out according to the regulations of the Canadian Council on Animal Care and with the approval of the Ontario Cancer Institute Animal Ethics Review board or the Faculty of Medicine Animal Care Committee at the University of Toronto.

[6] = in water; cited from earlier work
mtDNA of HL-60 cells = assay: Cbl-conjugate labeling of mtDNA (dot blot with TPP antibody); format: cell-based; details: 10 uM, 30 min
Protocol: HL-60 cells (25 million cells) were incubated with Cbl-TPP (10 uM) for 30 min, after which the cells were collected. The cells were then washed with ice-cold PBS, and their mitochondria were isolated using Mitochondrial Isolation Kit for Mammalian Cells (Thermo Scientific). The mtDNA was extracted from the mitochondrial pellets using AllPrep DNA/RNA Mini Kit (QIAGEN). DNA concentration was measured using a NanoDrop 1000 Spectrophotometer (Thermo Scientific) and then normalized (10 ng/μl). After this, a nitrocellulose membrane was spotted with untreated and treated DNA and UV crosslinked using UV Stratalinker 1800 (Stratagene) The membrane was blocked with 5% BSA-TBST for 1 hr at room temperature and then probed with TPP antibody (1∶5000) at 4°C overnight. Then the membrane was washed and visualized with chemiluminescence detection (GE Amersham).

[7] = tested on: mitochondrial proteins of HL-60 cells; assay: Cbl-conjugate labeling of mitochondrial proteins (immunoblot); format: cell-based; details: HL60 cells, 30 min; biotin-labeled mt-Cbl 1.5 μM or Cbl-TPP 10 uM
Protocol: HL-60 cells (25 million cells) were incubated with biotin-labeled mt-Cbl peptide (Biotin-mt-Cbl) (0, 1.5 μM) or Cbl-TPP (10 uM) for 30 min, after which the cells were collected. The cells were then washed with ice-cold PBS, and their mitochondria were isolated using Mitochondrial Isolation Kit for Mammalian Cells (Thermo Scientific). The mitochondrial pellets were then lysed using RIPA buffer plus protease inhibitors for 30 min. at 4°C and the total protein concentration determined using BCA assay. Lysates (10 μg of total protein) were then loaded onto 7% gels and run at 30 V for 30 min. and 150 V for 1 hour using a tris-tricine buffer system (Cathode buffer: 0.1 M Tris, 0.1 M Tricine, and 0.1% SDS, Anode buffer: 0.2 M Tris-Cl, pH8.9). Immunoblotting was continued as described previously using biotin antibody to detect the biotin tag on mt-Cbl or TPP antibody to detect Cbl-TPP.

[8] = Alkylation activity with 4-(4-nitrobenzyl)pyridine; details: absorbance of 4-(4-nitrobenzyl)pyridine
Excerpt: Supplementary file pone.0060253.s005.pdf: Figure S5 Characterization of Cbl-TPP. (a) Chemical structure of Cbl-TPP . Cbl was conjugated to a triphenylphosphonium ion to generate Cbl-TPP. (b) Alkylation activity of Cbl, mt-Cbl and Cbl-TPP.

HeLa cells [9] = assay: Mitochondrial ToxGlo assay, protease activity and cellular ATP levels; format: cell-based; details: 90 minutes, various doses (over EC50)
Protocol: as §1

[10] = tested on: 143B cells and 143B ρ° cells; assay: CCK-8 cell viability in 143B parental and ρ° cells; format: cell-based; details: overnight incubation, various doses
HeLa cells [11] = details: 18 hours treatment
[12] = Stability in mouse plasma over three weeks (HPLC); details: three-week incubation, HPLC single peak

For `O=C(O)CCCc1ccc(N(CCCl)CCCl)cc1` [Cbl, chlorambucil, reference compound], the Cmax [1] was 200 ng/mL, the half-life [1] was 0.75 h and the AUC [1] was 147 ng·h/mL. The half-life ([2]; mouse plasma) was 1 h, the half-life ([2]; mouse, saline) was 1 h and the “Liver histology (H&E)” value (mouse livers) was “histologically normal with no features of injury or toxicity”. The “Plasma levels of bilirubin, alkaline phosphatase and aspartate aminotransferase” value (mouse livers) was “No significant change”, the Caspase-3/7 activity [3] was “increase in caspase-3/7 activity in a dose-dependent manner” and the Accumulation in liver [4] was “site of greatest accumulation”. For the same molecule, the Levels in kidneys [4] was “very low levels”, the “Cleavage of caspase-3 and PARP-1” value ([5]; HeLa, Cbl 750 μM, 8 hours, Q-VD-Oph 20 μM pretreatment) was “induced the cleavage and activation of caspase-3” and the “Initial response rate in patients” value (leukemia) was 40–60%. For the same molecule, the MTD (Maximal tolerated dose) was 400 mg/kg and the half-life [6] was 0.5 h.
In the case of `O=C(CCCc1ccc(N(CCCl)CCCl)cc1)NCCC[P+](c1ccccc1)(c1ccccc1)c1ccccc1` [Cbl-TPP], the “Alkylation of mtDNA” value (mtDNA of HL-60 cells) is reported as “Alkylation of both mtDNA and proteins”, the “Alkylation of mitochondrial proteins” value [7] is reported as “Alkylation of both mtDNA and proteins” and the “Alkylation activity (rate of alkylation)” value [8] is reported as “retained alkylation activity very similar to that observed with the MPP conjugated form of mt-Cbl; also recorded: reduces its alkylation activity”. For the same molecule, the “Cellular ATP level” value (HeLa cells [9]) was “drastic drop in ATP cellular levels”, the Protease activity (HeLa cells [9]) was “significant increase in protease activity” and the “Toxicity in 143B parental versus mtDNA-free ρ° derivative” value [10] was “overlapping toxicity profiles”.
For `CC(=O)NC(CC1CCCCC1)C(=O)N[C@H](CCCNC(=N)N)C(=O)NC(CC1CCCCC1)C(=O)N[C@H](CCCNC(=N)N)C(=O)NC(CC1CCCCC1)C(=O)N[C@H](CCCNC(=N)N)C(N)=O` (stereo partly drawn) [MPP] (Ac-[ξCha][dR][ξCha][dR][ξCha][dR]-NH2; N-terminus and C-terminus assumed), the “Stability in mouse plasma” value was “stable”.
With `CC(C)[C@H](NC(=O)c1ccc2ccccc2n1)C(=O)N[C@@H](CC(=O)O)C(=O)COc1c(F)cccc1F` [Q-VD-Oph] the “Cleavage of caspase-3 and PARP-1” value [5] was “suppressed the effects of Cbl treatment”.
`N=C(N)NCCC[C@@H](NC(=O)C(CC1CCCCC1)NC(=O)[C@@H](CCCNC(=N)N)NC(=O)C(CC1CCCCC1)NC(=O)[C@@H](CCCNC(=N)N)NC(=O)C(CC1CCCCC1)NC(=O)CCCc1ccc(N(CCCl)CCCl)cc1)C(N)=O` (stereo partly drawn) [mt-Cbl] (Chlorambucil-[ξCha][dR][ξCha][dR][ξCha][dR]-NH2) showed a Cmax ([1]; in vivo) of 800 ng/mL, a half-life ([1]; in vivo) of 6 h and an AUC ([1]; in vivo) of 3560 ng·h/mL. The “Half-life (hydrolysis)” value ([2]; mouse plasma) was 1 h, the half-life ([2]; mouse, plasma, saline) was 1 h and the LD50 (HeLa cells [11]; HeLa after siEXOG transfection) was 4.7 µM. For the same molecule, the LD50 (HeLa cells [11]; HeLa after siNT (untargeted siRNA control) transfection) was 3.5 µM, the “Liver histology (H&E)” value (mouse livers) was “histologically normal with no features of injury or toxicity” and the “Plasma levels of bilirubin, alkaline phosphatase and aspartate aminotransferase” value (mouse livers) was “No significant change”. For the same molecule, the Accumulation in liver [4] was “site of greatest accumulation”, the “Accumulation in tumors compared to Cbl” value [4] was ~250 fold and the Levels in kidneys [4] was “very low levels”. For the same molecule, the “Stability in mouse plasma” value [12] was “stable in mouse plasma” and the MTD (Maximal tolerated dose) was 50 mg/kg.

From publication PMC3621862, “Re-Directing an Alkylating Agent to Mitochondria Alters Drug Target and Cell Death Mechanism” (PLoS ONE, 2013)
